Assay results from patent US20100324017A1, “ACYLGUANIDINE DERIVATIVE” (priority 2007, published 2010).

Experiments:
[1] = tested on: MK-801-induced overactivity; test: MK-801-induced overactivity in mice, kinetic momentum by infrared sensor; assay type: in vivo; details: mouse, oral, dose 0.01 mg/kg; MK-801 0.3 mg/kg i.p.; total 60 minutes, P<0.05
Procedure: Evaluation of Various Drugs Relative to a Drug for Increasing the Kinetic Momentum of Mice (Methane Phetamine, MK-801) (Method for Measuring a Kinetic Momentum by Discharge of an Infrared Ray)
The effect of improving the positive symptoms and the negative symptoms of schizophrenia by the compound (I) was evaluated by measuring the kinetic momentum that had been […] with administration of the compound in a model causing the symptoms by methane phetamine (which is hereinafter simply referred to as MAP) and MK-801.
Species: Male ICR mouse/number of animals (number of animals per group): 8 to 12 animals per group
The animal was left in a laboratory for 1 hour or longer to be acclimated to the environment, and the animal was taken from the feeding cage, orally administered with a compound to be tested, and then returned to the feeding cage. After 30 minutes, it was put into a cage for measurement, and the kinetic momentum of just the compound to be tested was measured. Further, after 30 minutes, the animal was taken out, and intraperitoneally administered with a drug for increasing kinetic momentum (MAP; 1 mg/kg or MK-801; 0.3 mg/kg, all dissolved in physiological saline), and its kinetic momentum was measured for a certain time (60 minutes) using a device for measuring the kinetic momentum by means of an infrared ray sensor (CompACT AMS, Muromachi Kikai Co., Ltd.). Also, the test was carried out under non-fasting.
The 60 minutes of measurements was classified into three groups: a first half 30 minutes, a second half 30 minutes, and a total 60 minutes. For a normal mouse (a mouse administered with physiological saline) and a mouse administered with the drug for increasing kinetic momentum, a Student's T test was used for evaluation in each interval. For the group administered with the compound to be tested, a solvent (vehicle) group and a Dunnett's T test were carried out and evaluated. For the evaluation, in case where there was a significant (P<0.05) difference for the total 60 minutes, it was considered to be effective.

human 5-HT5A receptor = molecular target: T1, human 5-HT5A receptor (Homo sapiens, UniProt P47898); test: Test of human 5-HT5A receptor binding inhibition ([3H]5-CT, HEK293 cell membrane); details: [3H]5-CT binding, membrane of HEK293 cell expressing human 5-HT5A receptor
T1 construct: expressed in transfected cells; membrane preparation
Procedure: An ORF of a human 5-HT5A receptor (Genbank AF498985) was cloned from a human hippocampal cDNA library, and then inserted into a pCR2.1 vector (Invitrogen), and Escherichia coli having the plasmid was mass cultured. Next, the human 5-HT5A receptor full-length cDNA sequence was analyzed, recombined into a pCDNA3.1 vector (Invitrogen) as an expression vector, and mass cultured. A human embryonic kidney-induced cell HEK293 cell (ATCC) was seeded, and the resulting expression plasmid (1 μg) above was added thereto together with LIPOFECTAMINE 2000 (Invitrogen; 2 μl), a gene was introduced into the HEK293 cell, and then Geneticin (G418 sulfate 500 μg/ml; Kanto Chemical Co., Inc.) was used as a drug-resistant marker to screen the expressing cell. Thus prepared gene-expressing recombinant cell was cultured in a D-MEM, 10% FCS, 1% Pc./Sm., 500 μg/ml G418 culture medium for 3 days. This experimental operation was conducted in accordance with a gene operation experiment manual of a known method (Sambrook, J. et al, Molecular Cloning-A Laboratory Manual“, Cold Spring Harabor Laboratory, NY, 1989), etc., an instruction appended in a reagent or the like.
(1) Preparation of a Membrane from an HEK293 Cell Forcibly Expressing a Human 5-HT5A Receptor
An HEK293 cell forcibly expressing a human 5-HT5A receptor was cultured in an F500 plate, and scraped for collection using a scraper. After centrifugation, the precipitates were collected and an incubation buffer (50 mM Tris (HCl) PH 7.4, 10 mM Mg504, 0.5 mM EDTA) was added thereto. After homogenization, it was further centrifuged, an incubation buffer was added to the precipitate, and the mixture was well suspended. These operations were repeatedly conducted, the protein concentration was then measured, and the preparation of a membrane was completed.
(2) Experiment on Human 5-HT5A Receptor Binding Inhibition
The compound to be tested (0.3 to 300 nM) and a 100 μM 5-CT solution in DMSO were added to a 96-well plate at 2 μl/well. The number of the wells to be measured under the same condition in one experiment was set at 2, and an average value thereof was used. It was suspended in an incubation buffer, and a HEK293 cell membrane forcibly expressing a human 5-HT5A receptor that had been prepared at 200 μg/ml was added thereto at 100 μl/well. The mixture was incubated at room temperature for 15 minutes, and a [^3H]5-CT solution (2 nM [^3H]5-CT, an incubation buffer) was then added thereto at 100 μl/well.
Separate from this, 100 μl of the solution was dispersed to a liquid scintillation vial, 2 ml of Aquasol II (registered trademark) was added thereto, followed by stirring, and the radioactivity was then measured with a liquid scintillation counter. The solution was incubated at 37° C. for 60 minutes. The reaction liquid was sucked to a 96-well GF/C filter plate that had been preliminarily treated with 0.2% polyethyleneimine, and washed six times with an ice-cooled 50 mM Tris (pH 7.5) buffer. The GF/C filter plate was dried.
MicroscintTMPS (registered trademark) was added thereto at 40 μl/well. The radioactivity remaining on the GF/C filter plate was measured in a top counter.
For the inhibitory activity for the binding of the [^3H]5-CT by the compound to be tested in each experiment, IC50 value was calculated by taking the radioactivity when only DMSO was added as 0% inhibition, and the radioactivity when 1 μM 5-CT was added as 100% inhibition. Apart from this, a Ki value was calculated from the Kd value of the [^3H]5-CT that had been determined by Scatchard analysis.
Ki=IC50 (1+Concentration of the ligands added/Kd (4.95 nM))

T1 sequence (P47898 whole entry): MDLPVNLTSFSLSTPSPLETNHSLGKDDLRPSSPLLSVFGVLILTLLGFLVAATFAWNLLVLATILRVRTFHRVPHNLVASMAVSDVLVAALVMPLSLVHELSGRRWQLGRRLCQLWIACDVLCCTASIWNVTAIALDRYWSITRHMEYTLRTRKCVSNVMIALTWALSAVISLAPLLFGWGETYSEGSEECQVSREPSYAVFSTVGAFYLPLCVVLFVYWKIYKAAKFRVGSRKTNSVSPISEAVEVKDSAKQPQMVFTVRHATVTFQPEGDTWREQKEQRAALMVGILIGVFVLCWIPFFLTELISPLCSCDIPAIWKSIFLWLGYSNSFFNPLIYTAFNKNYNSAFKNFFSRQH

Row | Ki (human 5-HT5A receptor) | Compound | inhibition of MK-801-induced overactivity [1]
1 | ≤ 50 nM | CC(C)n1c2cc(C(=O)N=C(N)N)ccc2c2c(CO)cccc21 [Example 65] | significantly inhibited
2 | 0.51 nM | NC(N)=NC(=O)c1ccc2c3ccccc3n(C3CCOCC3)c2c1 [Example 25] | significantly inhibited
